Source: PMC11299271 (BMC Pharmacology & Toxicology, 2024)
Values joined by “and” are separate entries in the source; they are usually repeats but may differ in a detail not shown here. Equal values may be shown once. Read-outs that look alike come from different tables or passages of the source.

Columns and labels:
[1] = Plasma glucose concentration in T2DM rats (glucose oxidase method); format: in vivo
Procedure: Glucose concentration in the plasma was determined by Glucose test kit (glucose oxidase method, Rongsheng biological Pharmaceutical Co.,Ltd, Shanghai, China). All the procedures were conducted according to manufacturers’ instructions. All test specimens (plasma samples, blank and calibration samples) were done in flat bottom 96 well microplates; 2.5 µL serum or calibration, 250 µL solution were pipetted into each well of the microplate, and the blank control contain water. The results were tested at 37 °C for 10 min and an absorbance value of 505 nm in a continuous monitoring micro plate reader. Glucose concentration (mmol/L) = (sample tube absorbent/calibration tube absorbent) × calibration fluid concentration (5.55 mmol/L). All experiments were repeated two duplicates.

[2] = Stability of analytes in QC rat plasma (UPLC-MS/MS); format: physicochemical; conditions: for Stability, autosampler at 4 °C for up to 16 h (% of nominal): extracted plasma samples; for Stability, autosampler at 4 °C for up to 16 h (% of nominal) / Stability, 4 °C for 12 h (% of nominal) / Stability, freeze-thaw three cycles (% of nominal) / Stability, room temperature for 4 h (% of nominal) / Stability, −80 °C for 7 days (% of nominal): n = 3; for Stability, 4 °C for 12 h (% of nominal) / Stability, freeze-thaw three cycles (% of nominal) / Stability, room temperature for 4 h (% of nominal) / Stability, −80 °C for 7 days (% of nominal): rat plasma; for stability in plasma under storage conditions: room temperature (25 °C) 4 h, 4 °C 12 h, −80 °C 7 days, three freeze-thaw cycles, autosampler 4 °C up to 16 h
Procedure: The stability of analytes in QC plasma was evaluated by analyzing replicates (n = 3) of LQC, MQC, HQC samples placed on storage for 4 h at room temperature (25 °C), for 12 h at 4 °C, for 7 days at −80 °C, and after three freeze-thaw cycles from −80 °C to room temperature. […]

[3] = Plasma insulin concentration in T2DM rats (Rat INS ELISA Kit); format: in vivo
Procedure: Insulin concentration in the plasma was determined by Rat INS ELISA Kit (Zeye Biotechnology Co., Ltd., Shanghai, China). All the procedures were conducted according to manufacturers’ instructions. Test specimens (plasma samples, blank and calibration samples) were added to an antibody-coated 96-well plate followed by addition of biological agent and enzyme conjugate solution, these mixtures incubated 30 min at 37 °C. The plate was then washed after incubation and a mixture of chromogenic reagent A and B was added. Optical density values at 450 nm were measured after terminating the reaction, and insulin concentrations were calculated according to the standard curve within a range of 0–20 mU/L (0, 1.25, 2.5, 5, 10, 20 mU/L).

[4] = Pharmacokinetic measurements in T2DM rats (plasma concentrations by UPLC-MS/MS, two-compartment PK model); format: in vivo; conditions: for C5ohsax, observed plasma concentration: individual rats
Procedure: . Plasma was obtained by centrifugation at 3000 r/min and stored at −80 °C until analysis.
Plasma concentrations of analytes were determined using the UPLC-MS/MS method above. […].

[5] = cited from earlier work
[6] = high QC: spiked 2000 ng/mL SAX, 400 ng/mL 5-OH SAX
[7] = low QC: spiked 15 ng/mL SAX, 3 ng/mL 5-OH SAX
[8] = T2DM rats, i.v. 0.5 mg/kg 5-OH SAX, Subject1, Subject2, Subject3, 0.5 mg/kg
[9] = T2DM rats, i.v. 0.5 mg/kg 5-OH SAX, two-compartment model, mean (n = 3)
[10] = i.g. 10 mg/kg SAX vs 0.5% CMC-Na
[11] = T2DM rats, i.g. 10 mg/kg SAX, two-compartment model with first order absorption, mean (n = 3)

Compound: N#C[C@@H]1C[C@@H]2C[C@@H]2N1C(=O)[C@@H](N)C12CC3CC(O)(CC(O)(C3)C1)C2 [5-OH SAX, 5-hydroxy Saxagliptin]
- blood glucose compared to the control group ([1]; tail vein 0.5 mg/kg 5-OH SAX vs saline, 0.08, 0.17, 0.25 and 0.5 h (P<0.05)): significant differences
- Stability, autosampler at 4 °C for up to 16 h (% of nominal) [2, 6]: 101.22 ± 2.47%
- Stability, autosampler at 4 °C for up to 16 h (% of nominal) [2, 7]: 100.44 ± 3.10%
- Stability, 4 °C for 12 h (% of nominal) [2, 6]: 99.32 ± 2.66%
- Stability, freeze-thaw three cycles (% of nominal) [2, 6]: 95.79 ± 2.16%
- Stability, room temperature for 4 h (% of nominal) [2, 6]: 98.51 ± 2.19%
- Stability, −80 °C for 7 days (% of nominal) [2, 6]: 97.49 ± 2.52%
- Stability, 4 °C for 12 h (% of nominal) [2, 7]: 100.67 ± 2.52%
- Stability, freeze-thaw three cycles (% of nominal) [2, 7]: 94.89 ± 2.91%
- Stability, room temperature for 4 h (% of nominal) [2, 7]: 99.78 ± 2.22%
- Stability, −80 °C for 7 days (% of nominal) [2, 7]: 95.11 ± 4.55%
- stability in plasma under storage conditions [2]: remained stable
- insulin compared to the control group ([3]; tail vein 0.5 mg/kg 5-OH SAX vs saline, within the sampling range): no significant differences
- AUC, individual rats [4, 8]: 691.49 ng·h/mL and 452.17 ng·h/mL and 611.48 ng·h/mL
- Cl2, individual rats [4, 8]: 494.78 mL/h/kg and 513.24 mL/h/kg and 406.78 mL/h/kg
- Cl, individual rats [4, 8]: 723.08 mL/h/kg and 1105.79 mL/h/kg and 817.70 mL/h/kg
- K12, individual rats [4, 8]: 4.85 h⁻¹ and 2.93 h⁻¹ and 2.76 h⁻¹
- K21, individual rats [4, 8]: 3.41 h⁻¹ and 3.53 h⁻¹ and 3.31 h⁻¹
- V2, individual rats [4, 8]: 145.22 mL/kg and 145.45 mL/kg and 122.77 mL/kg
- V, individual rats [4, 8]: 101.99 mL/kg and 175.09 mL/kg and 147.39 mL/kg
- t1/2a, individual rats [4, 8]: 3 min and 3.6 min and 4.2 min
- t1/2β, individual rats [4, 8]: 23.4 min and 19.8 min and 22.2 min
- C5ohsax, observed plasma concentration ([4]; T2DM rats, i.v. 0.5 mg/kg 5-OH SAX, nominal time 0.08 h, 0.5 mg/kg): 1610.00 ng/mL and 1240.00 ng/mL
- C5ohsax, observed plasma concentration ([4]; T2DM rats, i.v. 0.5 mg/kg 5-OH SAX, nominal time 0.17 h, 0.5 mg/kg): 972.00 ng/mL and 684.00 ng/mL and 900.00 ng/mL
- C5ohsax, observed plasma concentration ([4]; T2DM rats, i.v. 0.5 mg/kg 5-OH SAX, nominal time 0.25 h, 0.5 mg/kg): 595.00 ng/mL and 387.00 ng/mL and 550.00 ng/mL
- C5ohsax, observed plasma concentration ([4]; T2DM rats, i.v. 0.5 mg/kg 5-OH SAX, nominal time 0.50 h, 0.5 mg/kg): 295.00 ng/mL and 192.00 ng/mL and 235.00 ng/mL
- C5ohsax, observed plasma concentration ([4]; T2DM rats, i.v. 0.5 mg/kg 5-OH SAX, nominal time 0.75 h, 0.5 mg/kg): 150.00 ng/mL and 91.70 ng/mL and 149.00 ng/mL
- C5ohsax, observed plasma concentration ([4]; T2DM rats, i.v. 0.5 mg/kg 5-OH SAX, nominal time 2.00 h, 0.5 mg/kg): 20.60 ng/mL and 8.16 ng/mL and 11.60 ng/mL
- AUC [4, 9]: 585.04 ng·h/mL
- CL2 (clearance rate of peripheral compartment) [4, 9]: 7.86 mL/min/kg
- CL (clearance rate of central compartment) [4, 9]: 882.19 mL/h/kg
- Cmax [4, 9]: 3716.88 ng/mL
- K12 [4, 9]: 3.51 h⁻¹
- K21 [4, 9]: 3.42 h⁻¹
- V2 (apparent distribution volume of peripheral compartment) [4, 9]: 137.81 mL/kg
- V (apparent distribution volume of central compartment) [4, 9]: 141.49 mL/kg
- t1/2a (distribution phase half-life) [4, 9]: 3.6 min
- t1/2β (elimination half-life) [4, 9]: 21.6 min
- systemic exposure in plasma relative to the parent drug SAX ([5]; after SAX): about 3 times

Compound: N#C[C@@H]1C[C@@H]2C[C@@H]2N1C(=O)[C@@H](N)C12CC3CC(CC(O)(C3)C1)C2 [SAX, Saxagliptin]
- blood glucose compared to the control group [1, 10]: no significant differences
- Stability, autosampler at 4 °C for up to 16 h (% of nominal) [2, 6]: 98.05 ± 2.04%
- Stability, autosampler at 4 °C for up to 16 h (% of nominal) [2, 7]: 99.02 ± 2.00%
- Stability, 4 °C for 12 h (% of nominal) [2, 6]: 99.09 ± 2.02%
- Stability, freeze-thaw three cycles (% of nominal) [2, 6]: 95.84 ± 1.52%
- Stability, room temperature for 4 h (% of nominal) [2, 6]: 99.59 ± 3.47%
- Stability, −80 °C for 7 days (% of nominal) [2, 6]: 98.07 ± 2.07%
- Stability, 4 °C for 12 h (% of nominal) [2, 7]: 100.60 ± 2.29%
- Stability, freeze-thaw three cycles (% of nominal) [2, 7]: 96.71 ± 1.93%
- Stability, room temperature for 4 h (% of nominal) [2, 7]: 99.02 ± 2.02%
- Stability, −80 °C for 7 days (% of nominal) [2, 7]: 98.56 ± 2.14%
- stability in plasma under storage conditions [2]: remained stable
- insulin compared to the control group [3, 10]: no significant differences
- CL2 (clearance rate of peripheral compartment) [4, 11]: 284.8403 mL/min/kg
- CL (clearance rate of central compartment) [4, 11]: 3245.80 mL/h/kg
- K12 [4, 11]: 6.62 h⁻¹
- K21 [4, 11]: 1.07 h⁻¹
- V2 (apparent distribution volume of peripheral compartment) [4, 11]: 18393.30 mL/kg
- V (apparent distribution volume of central compartment) [4, 11]: 2307.24 mL/kg
- Tmax ([4]; rat, plasma, po, 10 mg/kg): 6.6 min
- half-life ([4]; rat, plasma, po, 10 mg/kg, T2DM rats, i.g. 10 mg/kg SAX, two-compartment model with first order absorption, mean (n = 3), read-out: t1/2Ka (absorption phase half-life) (converted)): 4.2 min
- half-life ([4]; rat, plasma, po, 10 mg/kg, T2DM rats, i.g. 10 mg/kg SAX, two-compartment model with first order absorption, mean (n = 3), read-out: t1/2a (distribution phase half-life) (converted)): 4.8 min
- half-life ([4]; rat, plasma, po, 10 mg/kg, T2DM rats, i.g. 10 mg/kg SAX, two-compartment model with first order absorption, mean (n = 3), read-out: t1/2β (elimination half-life) (converted)): 368 min
- AUC ([4]; rat, plasma, po, 10 mg/kg, read-out: AUC): 3280 ng·h/mL
- Cmax ([4]; rat, plasma, po, 10 mg/kg, read-out: Cmax): 2200 ng/mL
- share of the dose metabolized in the liver by CYP3A4/5 to 5-OH SAX [5]: about 50%
- bioavailability ([5]; oral 5 mg SAX): 75%
